Measured values as given in the NIST ThermoML archive (doi:10.1021/je020220n).
Where “and” joins values, the source holds several entries; their conditions need not be identical. Identical values can stand only once.

Conditions: Crystal

[Br][Er]([Br])[Br] [erbium bromide (ErBr3)]
Conditions	vapor or sublimation pressure
919 K	2.82e-05 kPa
930 K	4.17e-05 kPa and 7.08e-05 kPa
941 K	7.08e-05 kPa
942 K	8.91e-05 kPa and 0.0001122 kPa
948 K	9.77e-05 kPa
952 K	0.000123 kPa
954 K	0.0001413 kPa
956 K	0.000182 kPa
959 K	0.0001413 kPa
961 K	0.0001995 kPa
962 K	0.0001778 kPa
964 K	0.000195 kPa
966 K	0.0001995 kPa
968 K	0.000182 kPa
970 K	0.0002692 kPa and 0.0002455 kPa
971 K	0.0002951 kPa
973 K	0.0002692 kPa
977 K	0.0003467 kPa
979 K	0.0003311 kPa and 0.0002818 kPa
982 K	0.0003631 kPa
984 K	0.0004898 kPa
988 K	0.0004786 kPa
989 K	0.0004677 kPa
990 K	0.0004898 kPa
993 K	0.0005623 kPa and 0.0004169 kPa
998 K	0.000631 kPa and 0.0006166 kPa and 0.0007943 kPa
1004 K	0.0009333 kPa
1007 K	0.0008318 kPa
1008 K	0.0006761 kPa and 0.0008511 kPa
1009 K	0.000871 kPa
1010 K	0.0009772 kPa
1015 K	0.001349 kPa
1018 K	0.001148 kPa and 0.001122 kPa
1020 K	0.001 kPa
1025 K	0.001698 kPa and 0.001445 kPa
1026 K	0.001514 kPa
1028 K	0.002089 kPa
1033 K	0.002138 kPa and 0.001585 kPa
1036 K	0.002042 kPa and 0.00257 kPa and 0.002089 kPa
1045 K	0.002951 kPa and 0.002818 kPa
1051 K	0.003631 kPa
1056 K	0.00389 kPa
1058 K	0.004365 kPa

[I][Er]([I])[I] [erbium iodide]
Conditions	vapor or sublimation pressure
871 K	5.37e-05 kPa
873 K	5.37e-05 kPa
876 K	8.51e-05 kPa
884 K	0.0001072 kPa
886 K	7.94e-05 kPa and 0.0001047 kPa and 5.75e-05 kPa
889 K	9.33e-05 kPa
890 K	0.0001047 kPa
891 K	0.0001479 kPa
897 K	0.0001349 kPa
898 K	0.0001349 kPa and 0.0001905 kPa
903 K	0.0001622 kPa and 0.0002089 kPa
904 K	0.0002344 kPa and 0.0002089 kPa
906 K	0.0001995 kPa
907 K	0.0001288 kPa
912 K	0.0002138 kPa and 0.0003162 kPa
913 K	0.0002692 kPa and 0.000302 kPa
915 K	0.0002344 kPa
916 K	0.0001738 kPa
918 K	0.0002951 kPa and 0.0004074 kPa
923 K	0.0004169 kPa
924 K	0.0005129 kPa and 0.0003388 kPa
928 K	0.0002754 kPa
929 K	0.0003715 kPa
930 K	0.000631 kPa and 0.000537 kPa and 0.0005754 kPa
932 K	0.0004169 kPa
934 K	0.0002884 kPa
936 K	0.0006166 kPa and 0.0008318 kPa
937 K	0.0003631 kPa
939 K	0.0007586 kPa
940 K	0.0005623 kPa and 0.000537 kPa and 0.0007586 kPa
943 K	0.001071 kPa
945 K	0.0004786 kPa
946 K	0.0005129 kPa
947 K	0.0007413 kPa
948 K	0.000955 kPa
949 K	0.001349 kPa and 0.001023 kPa and 0.001047 kPa
950 K	0.0007762 kPa
952 K	0.000537 kPa
955 K	0.0006457 kPa
956 K	0.001698 kPa
957 K	0.0009772 kPa
958 K	0.001445 kPa
959 K	0.00123 kPa
961 K	0.0007413 kPa
962 K	0.001698 kPa
963 K	0.001698 kPa and 0.001202 kPa and 0.0008913 kPa
966 K	0.00195 kPa and 0.001023 kPa
968 K	0.00257 kPa
969 K	0.001514 kPa
971 K	0.001906 kPa
972 K	0.00123 kPa
973 K	0.002455 kPa
974 K	0.003162 kPa and 0.00257 kPa and 0.001175 kPa
976 K	0.002042 kPa
978 K	0.002884 kPa
979 K	0.002951 kPa
980 K	0.003802 kPa and 0.001622 kPa
981 K	0.001778 kPa
982 K	0.002512 kPa
983 K	0.003388 kPa
984 K	0.003548 kPa
986 K	0.003236 kPa
987 K	0.00182 kPa
988 K	0.002089 kPa
989 K	0.004266 kPa
990 K	0.003236 kPa
992 K	0.004266 kPa and 0.004467 kPa
994 K	0.004786 kPa
995 K	0.002951 kPa
996 K	0.002754 kPa
997 K	0.004169 kPa
999 K	0.004786 kPa and 0.005754 kPa
1001 K	0.00631 kPa and 0.002884 kPa
1004 K	0.006457 kPa and 0.005129 kPa
1006 K	0.006918 kPa
1007 K	0.007079 kPa
1008 K	0.004677 kPa and 0.00389 kPa
1010 K	0.007943 kPa
1011 K	0.008318 kPa
1012 K	0.006761 kPa
1015 K	0.004571 kPa
1016 K	0.005129 kPa
1017 K	0.01 kPa
1018 K	0.008128 kPa
1019 K	0.01047 kPa
1026 K	0.01318 kPa
1030 K	0.006918 kPa
1036 K	0.01778 kPa
1045 K	0.01023 kPa
1046 K	0.02455 kPa
1059 K	0.03548 kPa
1070 K	0.04898 kPa
1082 K	0.06918 kPa

[Cl][Er]([Cl])[Cl] [erbium trichloride]
Conditions	vapor or sublimation pressure
880 K	1.07e-05 kPa
892 K	1.58e-05 kPa
897 K	2.14e-05 kPa
903 K	2.69e-05 kPa
907 K	1.7e-05 kPa and 3.24e-05 kPa
913 K	4.27e-05 kPa
916 K	5.13e-05 kPa
920 K	3.39e-05 kPa
921 K	5.89e-05 kPa
923 K	3.39e-05 kPa
925 K	4.27e-05 kPa and 6.92e-05 kPa
929 K	5.01e-05 kPa
932 K	5.01e-05 kPa and 4.27e-05 kPa
933 K	0.0001023 kPa
935 K	5.01e-05 kPa and 0.0001072 kPa
936 K	6.76e-05 kPa
943 K	0.0001445 kPa [middle of 4 runs]
948 K	0.0001349 kPa
949 K	8.51e-05 kPa
950 K	0.0001995 kPa
951 K	0.0001995 kPa
952 K	0.0001175 kPa
953 K	0.0001349 kPa
954 K	0.0001 kPa
958 K	0.0001514 kPa and 0.0001862 kPa
959 K	0.0002754 kPa
960 K	0.0002754 kPa
963 K	0.0001698 kPa [middle of 4 runs]
968 K	0.0002188 kPa and 0.0002692 kPa and 0.0003715 kPa
970 K	0.0002188 kPa and 0.0003802 kPa
972 K	0.0002692 kPa
976 K	0.0002344 kPa
977 K	0.0003981 kPa and 0.0002455 kPa
978 K	0.0003236 kPa
981 K	0.0003715 kPa
983 K	0.0004898 kPa
986 K	0.0004365 kPa
988 K	0.0003467 kPa
990 K	0.000631 kPa and 0.0004074 kPa and 0.0005012 kPa
995 K	0.0005754 kPa and 0.000631 kPa
997 K	0.0008318 kPa
998 K	0.0004786 kPa
999 K	0.0006761 kPa
1003 K	0.0006607 kPa and 0.0008511 kPa
1004 K	0.0007762 kPa
1008 K	0.0009333 kPa and 0.0006761 kPa
1012 K	0.001071 kPa
1013 K	0.001097 kPa
1014 K	0.001412 kPa
1016 K	0.001071 kPa
1017 K	0.001288 kPa
1018 K	0.0009333 kPa
1021 K	0.001445 kPa
1022 K	0.001514 kPa
1025 K	0.00195 kPa and 0.001698 kPa
1028 K	0.001318 kPa
1030 K	0.001514 kPa and 0.00195 kPa
1031 K	0.002138 kPa
1033 K	0.002512 kPa
1034 K	0.002512 kPa
1037 K	0.002455 kPa
1040 K	0.002818 kPa and 0.003162 kPa and 0.002344 kPa
